Data as given in patent publication US11883405B2, “Pharmaceutical composition comprising a combination of methotrexate and novobiocin, and the use of said composition in therapy” (Amplio Pharma AB, priority 2017, dated 2024).
Read-outs that look alike come from different tables or passages of the source. Each block holds one molecule with its values, some of them ahead of it.

Legend:
MMP1 = conditions: cited from earlier work; for IL-1 induced increase in MMP1 expression: Nose M. et al. (1997)
MMP3 = conditions: cited from earlier work
RA patients = conditions: 15 mg/wk, cited from earlier work
[1] = Pharmacokinetics in rats after oral (gavage) or parenteral administration
Experimental: (§9) In vivo study protocol—in accordance with local (Malmo, Sweden) animal ethic license number M388-12: Following acclimatization to the housing conditions for a minimum of 7 days after arrival, male Wistar (Hannover) rats (Taconic, Denmark), average weight 300 g; average age 8-10 weeks, are treated with test items (see table 1); 12-16 h prior to dosing all food except for an amount equivalent to a half day consumption is removed. The test items are administrated using a soft gavage tube (p.o.) or by injecting the test item in the tail vein (i.v). The volume given is 5 mL/kg (p.o.) or 1 mL/kg (i.v.). Before i.v administration rats are anesthetized using isoflurane. The rats are conscious during sample collection and the blood is taken from the sub-lingual vein. Blood samples are collected from each rat over a period of up to 24 h. At each time point two aliquots of 50 μL each is added to a vial containing 150 μL of sterile water. The samples are mixed immediately and stored at −18° C. until preparation for bioanalysis is commenced. All formulations are prepared on the same day that dosing takes place. The body weight of the rat is recorded before dosing. The weight of the syringe is recorded before and after administration to allow calculation of the actual amount of test sample delivered. The actual doses are used during the evaluation of the data.
(§10) Samples and standards are injected by a HTC PAL from CTC analytics into an LC system from Shimadzu consisting of a high-pressure gradient system of two LC-10 AD pumps controlled by a SCL-10A controller from Shimadzu. The samples are separated using reverse-phase chromatography with gradient elution at a flow rate of 0.8 mL/min. Mobile phases are A:94.9/5/0.1 water/acetonitrile/formic acid and B:5/94.9/0.1 water/acetonitrile/formic acid. Gradient starts at 0% B and increases linearly to 100% B in 4 minutes, 100% B is kept for 0.5 minutes and then the system returns to 0% B in 0.1 minutes. The system is equilibrated for 1.4 minutes until the total run time of 6 minutes. The eluent is analysed by a Quattro Ultima from Micromass equipped with an electrospray ion source. Data are collected, and calibrations are calculated by MassLynx 4.0 software. […] The eluent is ionized by negative ion electrospray.
(§11) The diluted blood sample (50 μL blood, 150 μL water) is thawed and mixed with 400 μL of acetonitrile, to precipitate the protein. The sample is centrifuged at 5000 g for 5 minutes and 100 μL of the supernatant is transferred to a 300 μL glass vial and 100 μL of water is added to reduce the acetonitrile concentration.
(§12) The concentration of the standard curve is in the range from 5 nM to 15625 nM. Samples with analyte concentrations above the upper limit of quantification are diluted with matrix to reach within the assay range. A non-compartmental analysis (NCA) is performed using the Phoenix WinNonLin analysis tool.

[2] = cited from earlier work
[3] = therapeutically effective treatment dose level; cited from earlier work
neutrophils [4] = conditions: 4 months after reaching a therapeutic dose of more than 20 mg/week; cited from earlier work
[5] = system: pristane-induced arthritis; assay: Pristane-induced arthritis (PIA) rat model; format: in vivo
Experimental: The animals are acclimatized for approximately one week before initiation of experiment. All rats are weighed day 0, the day of disease induction, for determination of mean weight of the rats included in the experiment. Arthritis is induced by subcutaneous (s.c.) administration of 200 μl pristane on Day 0. The rats are anesthetized by inhaling a mixture of Isoba vet (3.5%) and oxygen. The root of the tail is cleaned with 70% ethanol and the oil is injected approximately 0.5 cm from the root of the tail. A slight pressure is put on the injection site for 5 seconds after injection to prevent leakage of the oil. Test compounds are administered either i.v. or p.o. (by gavage). Disease is evaluated three times per week from disease onset using a macroscopic scoring system of the four limbs ranging from 0 to 15 (1 point for each swollen or red toe, 1 point for a swollen or red mid foot digit or knuckle, 5 points for a swollen ankle) resulting in a maximum total score of 60 for each rat. The disease scoring is done in a double-blind fashion, i.e. the scorer is unaware of the treatment received by the animal. […]

[6] = Pharmacokinetic cross-over study in healthy volunteers (oral / subcutaneous); format: in vivo, human; conditions: for absorption: after oral and subcutaneous administration
Experimental: Administrations are separated by a wash-out period of 7-14 days. […] Plasma samples are stored at −20° C. until analysis. The primary objective of the study is to evaluate the relative bio-availability of methotrexate following its co-administration with novobiocin. Secondary objectives of the study include the overall tolerability and safety of the co-administration of a therapeutic dose of methotrexate with a non-therapeutic dose of novobiocin for both administration routes overall and in comparison, to administration of methotrexate alone.

neutrophils [7] = assay: Induction of neutrophil apoptosis (in vitro/ex vivo model of arthritis); format: cell-based, human
Excerpt: (§1) Apoptosis, in contrast to necrosis, is the demise of a cell through a series of controlled sequential events, resulting in an increase of anti-inflammatory mediators instead of invoking an inflammatory response, because the contents of the cell are removed by phagocytosis and not released to the direct environment. Apoptosis involves the activation of caspases, including caspase 3. Aberration in expression and/or function of the regulators of cell death through apoptosis is thought to result in pathological conditions, including autoimmune diseases and cancer. Although apoptotic cells are uncommonly observed in vivo in RA tissues, in vitro inflammatory cells from RA tissues, like synoviocytes, T-cells and macrophages, are highly susceptible to apoptosis induced through the FAS-TNF-receptor pathway. The absence of apoptotic cells in vivo may be explained by the high levels of nitric oxide in RA tissues, which inhibits caspase 3 and thus cell apoptosis.
(§2) Novobiocin is a topoisomerase II inhibitor and at therapeutically relevant concentration levels, is expected to counteract CPPD-triggered prolonged survival of neutrophils. Such a pharmacodynamic effect of Novobiocin may be quantified either through activity (levels) of caspase 3, an apoptotic cleavage enzyme, or cytoplasmic histone-associated-DNA fragmentation assessment, using commercially available kits.
(§3) In the latter model, the effect on neutrophil apoptosis can be either studied directly, or indirectly, exposing the cells in vitro to a challenge that prolongs their survival (e.g. CPPD crystals).
(§4) CPPD (Ca2P2O7.2H2O; triclinic form) crystals can be obtained using well described methods (Burt H M et al. 1989; Gras P. et al. 2013). Plasma protein coating of the crystals is achieved through incubation of the crystals in 50% plasma (Tudan C et al. 2003). The CPPD crystals are used in experiments with neutrophils from healthy control individuals/animals to mimic arthritic disease.
(§5) Neutrophils are separated from fresh human (healthy control/patient) or rat (healthy control; disease model) blood using standard methods and suspended in buffer at a concentration of 1×10^6 cells/ml. The cells are incubated at 37° C. with occasional tumbling.
(§6) Stock solutions of TNFalpha, Methotrexate and Novobiocin are prepared in DMSO, keeping the DMSO concentrations in the cell suspensions below 0.1% during the experiment. The apoptosis rate following the administration of vehicle without active agent (negative control) represents the baseline rate of apoptosis (no effect level), while the apoptosis rate following the administration of TNFalpha (positive control) represents the maximum rate of apoptosis (100% effect level).

[8] = rodents; cited from earlier work
neutrophils [9] = assay: Induction of neutrophil apoptosis (in vitro/ex vivo model of arthritis); format: cell-based, rat
Excerpt: as §1, §2, §3, §4, §5, §6

[10] = adults; cited from earlier work
MMP3 (stromelysin1) = assay: IL-1 induced mRNA upregulation of MMP3 in primary chondrocyte culture; format: cell-based; conditions: calf chondrocytes, IL-1 20 ng/mL; concentrations <100 uM
Experimental: (§7) Primary chondrocyte culture was freshly isolated from calf cartilage. The cells were plated (at 2.5×10^6 per mL) in 100×20 mm culture dishes and incubated in Ham's F12 medium containing 5% fetal bovine serum (FBS) overnight at 37° C. The cells were starved with serum-free medium overnight. The cells were pretreated with MTX, NOV or a combination of MTX with 1, 2, 10 or 20 eq of NOV for 6 hours. Then IL-1 (20 ng/mL) was added to each plate and the plates were incubated for an additional 18 h.
(§8) Total RNA was isolated by the acidified guanidine isothiocyanate method and subjected to electrophoresis on a denatured gel. Denatured RNA samples were analyzed by gel electrophoresis in a 1% denaturing gel, transferred to a nylon membrane and hybridized respectively with the ^32P-cDNA probes for MMP1, MMP3 and proteoglycan and analyzed.

[11] = cited from earlier work; remark: listed apart in the source
plasma albumin = target: T1, plasma albumin (Homo sapiens, UniProt P02768); conditions: in men; cited from earlier work
T1 construct: host or cells: human plasma

MMP1 (collagenase) = assay: IL-1 induced mRNA upregulation of MMP1 in primary chondrocyte culture; format: cell-based, calf; conditions: concentrations <100 uM
Experimental: as §7, §8

[12] = rat, in vivo
Experimental: as §9, §10, §11, §12

[13] = at 1×10^−7 M, Jackson J K et al. (2008)
[14] = male, Wistar (Hannover), rat, whole blood, po, 2 mg/kg
[15] = neutrophils from healthy subjects, concentrations <60 uM
[16] = male, Wistar (Hannover), rat, whole blood, ip, 5.5 mg/kg
[17] = male, Wistar (Hannover), rat, whole blood, po, 55 mg/kg
[18] = neutrophils from healthy rat, concentrations <60 uM

T1 sequence (P02768 25-609): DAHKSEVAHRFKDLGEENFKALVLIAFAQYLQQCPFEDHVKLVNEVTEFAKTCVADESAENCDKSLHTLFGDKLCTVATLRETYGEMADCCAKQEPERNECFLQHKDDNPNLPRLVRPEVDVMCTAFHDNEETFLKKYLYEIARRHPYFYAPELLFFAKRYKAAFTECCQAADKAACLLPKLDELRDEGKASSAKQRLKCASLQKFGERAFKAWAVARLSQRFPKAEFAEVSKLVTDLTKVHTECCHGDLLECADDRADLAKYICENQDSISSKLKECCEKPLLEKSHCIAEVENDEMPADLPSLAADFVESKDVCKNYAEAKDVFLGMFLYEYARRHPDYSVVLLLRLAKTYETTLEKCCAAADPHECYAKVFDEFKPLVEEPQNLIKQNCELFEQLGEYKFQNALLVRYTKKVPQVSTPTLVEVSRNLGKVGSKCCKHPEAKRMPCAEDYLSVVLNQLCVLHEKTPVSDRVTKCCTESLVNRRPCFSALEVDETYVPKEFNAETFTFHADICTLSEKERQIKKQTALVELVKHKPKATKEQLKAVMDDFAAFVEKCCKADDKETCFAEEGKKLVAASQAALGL

SMILES: CC[C@@]1(O)C(=O)OCc2c1cc1n(c2=O)Cc2cc3ccccc3nc2-1 [Camptothecin]
IL-1 induced increase in MMP1 mRNA expression (MMP1; [13]): almost completely inhibited
IL-1 induced increase in MMP3 mRNA expression (MMP3; [13]): almost completely inhibited

SMILES: O=C(O)c1cc(/N=N/c2ccc(S(=O)(=O)Nc3ccccn3)cc2)ccc1O [Sulfasalazin]
IL-1 induced increase in MMP1 expression (MMP1): suppressed
IL-1 induced increase in MMP3 expression (MMP3; Nose M. et al. (1997)): suppressed

AUC(0-inf) [1, 14]: 0.923 µM·h
AUC(0-t) [1, 14]: 0.759 µM·h
Cmax [1, 14]: 277 nM
maximum concentrations and total plasma concentrations, sub cutaneous versus oral administration ([6]; 15 mg methotrexate alone): higher
absorption ([6]; healthy volunteers): rapidly absorbed
time to maximum plasma concentrations, sub cutaneous route versus oral route ([6]; healthy volunteers): reached faster
SMILES: CN(Cc1cnc2nc(N)nc(N)c2n1)c1ccc(C(=O)N[C@@H](CCC(=O)O)C(=O)O)cc1 [methotrexate, N-[4-[[(2,4-diamino-6-pteridinyl)methyl]methylamino]benzoyl]-L-glutamic acid]
treatment success, RA patients (RA patients; oral application route): 24%
treatment success, RA patients (RA patients; sc application route): 34%
IL-1 induced increase in MMP1 expression (MMP1): suppressed
time within which non-polyglutamated methotrexate is excreted in the urine after administration ([2]; in vivo): ≤ 12 h
systemic bioavailability ([2]; man, oral dose): approximately 73%
bioavailability ([2]; subcutaneous (sc) administration): approx. 95%
patient population in which treatment needs to be terminated due to intolerability [3]: about 30%
neutrophil apoptosis in RA patients (neutrophils [4]): restoration of neutrophil apoptosis to healthy control levels
inflammatory effects of pristane ([5]; 0.1 mg/kg every third day from day 7 (i.v.)): completely ameliorated

SMILES: CO[C@@H]1[C@@H](OC(N)=O)[C@@H](O)[C@H](Oc2ccc3c(O)c(NC(=O)c4ccc(O)c(CC=C(C)C)c4)c(=O)oc3c2C)OC1(C)C [novobiocin, 4-hydroxy-3-[4-hydroxy-3-(3-mehtylbut-2-enyl)benzamido]-8-methylcoumarin-7-yl 3-O-carbamoyl-5,5-di-C-methyl-alpha-L-lyxofuranoside]
effect of NOV on CPPD-induced prolonged survival (neutrophils [7]; neutrophils from healthy controls (human), control = base line, TNFalpha is 100% effect, concentrations <50 uM): No pharmacodynamic effects
pharmacodynamic effects on CPPD-induced prolonged survival (neutrophils [7]; [15]): No pharmacodynamic effects
pharmacodynamic effects on neutrophil apoptosis (neutrophils [7]; [15]): No pharmacodynamic effects
pharmacodynamic effects on neutrophil apoptosis (neutrophils [7]; neutrophils from patients with rheumatoid arthritis, concentrations <60 uM): No pharmacodynamic effects
AUC(0-inf) [1, 16]: 25500 ng·h/mL
Cmax [1, 16]: 9600 ng/mL
Tmax [1, 16]: 0.9 h
AUC(0-inf) [1, 17]: 110000 ng·h/mL
AUC(0-t) [1, 17]: 110 µg·h/mL
Cmax [1, 17]: 23300 ng/mL
Tmax [1, 17]: 1.8 h
Cmax ([1]; oral administration (gavage; 55 mg/kg)): 23300 ng/mL
oral availability [8]: about 30%
pharmacodynamic effects on neutrophil apoptosis (neutrophils [9]; neutrophils from disease model animals (PIA rat), concentrations <60 uM): No pharmacodynamic effects
effect of NOV on CPPD-induced prolonged survival (neutrophils [9]; neutrophils from healthy controls (rat), control = base line, TNFalpha is 100% effect, concentrations <50 uM): No pharmacodynamic effects
pharmacodynamic effects on CPPD-induced prolonged survival (neutrophils [9]; [18]): No pharmacodynamic effects
pharmacodynamic effects on neutrophil apoptosis (neutrophils [9]; [18]): No pharmacodynamic effects
maximum tolerated dose (MTD) [10]: 4 g/day
therapeutic effect on the pristane-induced arthritis ([5]; daily per oral administration of up to 80 mg/kg from day 11 to 21 (after onset of disease)): no therapeutic effect
absorption ([6]; healthy volunteers): rapidly absorbed
plasma levels versus levels at which any pharmacodynamic effects can be observed in non-clinical models of disease ([6]; healthy volunteers): remain well below
time to maximum plasma concentrations, sub cutaneous route versus oral route ([6]; healthy volunteers): reached faster
pharmacodynamic effects on the IL-1 induced mRNA upregulation of MMP3 (MMP3 (stromelysin1)): No pharmacodynamic effects
dose excreted unaltered in the urine ([11]; Wright W. W. et al., 1956): About 3%
oral dose excreted in the faeces ([11]; hepatic/biliary excretion): about 30%
bound to plasma albumin (plasma albumin): 99.2%
pharmacodynamic effects on the IL-1 induced mRNA upregulation of MMP1 (MMP1 (collagenase); calf chondrocytes, IL-1 20 ng/mL): No pharmacodynamic effects
additional pharmacodynamic effects on the inhibition of the IL-1 induced mRNA upregulation of MMP1 by MTX (MMP1 (collagenase); novobiocin added to MTX): No additional pharmacodynamic effects
linearity of pharmacokinetics [12]: linear
